# In patent US10533010B2, “Substituted indole Mcl-1 inhibitors” (Vanderbilt University, priority 2014, dated 2020):
# Biological target: recombinant Mcl-1 (residues 172-327) (Homo sapiens (Human), UniProt Q07820)
# Test: Fluorescence polarization anisotropy competition assay (FITC-Bak or FITC-Bim BH3 peptide) with Mcl-1
# Assay type: binding
# Settings: Table 2; Ki bins given in nM; FITC-Bak or FITC-Bim peptide competition; Ki converted from IC50; read-out: Ki for Inhibition of Mcl-1
# recombinant Mcl-1 (residues 172-327), sequence (Q07820 172-327): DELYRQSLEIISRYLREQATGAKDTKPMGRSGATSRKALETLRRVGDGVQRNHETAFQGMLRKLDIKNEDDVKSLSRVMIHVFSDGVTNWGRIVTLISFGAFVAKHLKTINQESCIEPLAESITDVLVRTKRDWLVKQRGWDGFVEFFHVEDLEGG
row,SMILES,Ki [nM]
1,"Cc1cc(OCCCc2c(C(=O)Nc3cccc(CC(=O)O)c3)[nH]c3c(-c4c(C)nn(C)c4C)cccc23)cc(C)c1Cl [I-206, 2-(3-(3-(3-(4-chloro-3,5-dimethylphenoxy)propyl)-7-(1,3,5-trimethyl-1H-pyrazol-4-yl)-1H-indole-2-carboxamido)phenyl)acetic acid]",< 50
2,"Cc1cc(OCCCc2c(C(=O)Nc3ccc(C(=O)O)nc3)[nH]c3c(-c4c(C)nn(C)c4C)c(Cl)ccc23)cc(C)c1Cl [I-185, 5-(6-chloro-3-(3-(4-chloro-3,5-dimethylphenoxy)propyl)-7-(1,3,5-trimethyl-1H-pyrazol-4-yl)-1H-indole-2-carboxamido)picolinic acid]",< 50
3,"Cc1cc(OCCCc2c(C(=O)NCc3cc(C(=O)O)n(Cc4ccccc4)c3)[nH]c3c(-c4c(C)nn(C)c4C)cccc23)cc(C)c1Cl [I-75, 1-benzyl-4-((3-(3-(4-chloro-3,5-dimethylphenoxy)propyl)-7-(1,3,5-trimethyl-1H-pyrazol-4-yl)-1H-indole-2-carboxamido)methyl)-1H-pyrrole-2-carboxylic acid]",51 to 100
4,"Cc1cc(OCCCc2c3n(c4c(-c5c(C)nn(C)c5C)c(Cl)ccc24)CCN(c2cncc(C(=O)O)c2)C3=O)cc(C)c1Cl [I-198, 5-(7-chloro-10-(3-(4-chloro-3,5-dimethylphenoxy)propyl)-1-oxo-6-(1,3,5-trimethyl-1H-pyrazol-4-yl)-3,4-dihydropyrazino[1,2-a]indol-2(1H)-yl)nicotinic acid]",< 50
5,"Cc1cc(OCCCc2c3n(c4c(-c5c(C)nn(C)c5C)c(Cl)ccc24)CCN(c2cc(C(=O)O)cc4c2ccn4C)C3=O)cc(C)c1Cl [I-163, 4-(7-cholro-10-(3-(4-chloro-3,5-dimethylphenoxy)propyl)-1-oxo-6-(1,3,5-trimethyl-1H-pyrazol-4-yl)-3,4-dihydropyrazino[1,2-a]indol-2(1H)-yl)-1-methyl-1H-indole-6-carboxylic acid]",< 50
6,"Cc1cc(OCCCc2c3n(c4c(-c5c(C)nn(C)c5C)c(Cl)ccc24)[C@@H](C)CN(Cc2ccc(C(=O)O)cc2)C3=O)cc(C)c1Cl [I-150, (S)-4-((7-chloro-10-(3-(4-chloro-3,5-dimethylphenoxy)propyl)-4-methyl-1-oxo-6-(1,3,5-trimethyl-1H-pyrazol-4-yl)-3,4-dihydropyrazino[1,2-a]indol-2(1H)-yl)methyl)benzoic acid]",< 50
7,"Cc1cc(OCCCc2c3n(c4c(-c5c(C)nn(C)c5C)c(Cl)ccc24)CCCN(CCc2ccccc2C(=O)O)C3=O)cc(C)c1Cl [I-294, 2-(2-(8-chloro-11-(3-(4-chloro-3,5-dimethylphenoxy)propyl)-1-oxo-7-(1,3,5-trimethyl-1H-pyrazol-4-yl)-4,5-dihydro-1H-[1,4]diazepino[1,2-a]indol-2(3H)-yl)ethyl)benzoic acid]",< 50
8,"Cc1cc(OCCCc2c3n(c4c(-c5c(C)nn(C)c5C)c(Cl)ccc24)[C@@H](C)CN(Cc2cccc(C(=O)O)c2)C3=O)cc(C)c1Cl [I-151, (S)-3-((7-chloro-10-(3-(4-chloro-3,5-dimethylphenoxy)propyl)-4-methyl-1-oxo-6-(1,3,5-trimethyl-1H-pyrazol-4-yl)-3,4-dihydropyrazino[1,2-a]indol-2(1H)-yl)methyl)benzoic acid]",< 50
9,"Cc1cc(OCCCc2c(C(=O)N[C@H]3CCCC[C@H]3C(=O)O)[nH]c3c(-c4c(C)nn(C)c4C)cccc23)cc(C)c1Cl [I-316, (1R,2S)-2-(3-(3-(4-chloro-3,5-dimethylphenoxy)propyl)-7-(1,3,5-trimethyl-1H-pyrazol-4-yl)-1H-indole-2-carboxamido)cyclohexane-1-carboxylic acid]",< 50
10,"Cc1cc(OCCCc2c(C(=O)NCc3cc(C(=O)O)cc(N4CCN(CCC(C)C)CC4)n3)[nH]c3c(-c4c(C)nn(C)c4C)c(Cl)ccc23)cc(C)c1Cl [I-285, 2-((6-chloro-3-(3-(4-chloro-3,5-dimethylphenoxy)propyl)-7-(1,3,5-trimethyl-1H-pyrazol-4-yl)-1H-indole-2-carboxamido)methyl)-6-(4-isopentylpiperazin-1-yl)isonicotinic acid]",< 50

# The next lines start with the values.
row,Ki [nM],SMILES
1,< 50,"Cc1cc(OCCCc2c3n(c4c(-c5c(C)nn(C)c5C)c(Cl)ccc24)C[C@H](C)N(Cc2ccc(C(=O)O)o2)C3=O)cc(C)c1Cl [I-138, (S)-5-((7-chloro-10-(3-(4-chloro-3,5-dimethylphenoxy)propyl)-3-methyl-1-oxo-6-(1,3,5-trimethyl-1H-pyrazol-4-yl)-3,4-dihydropyrazino[1,2-a]indol-2(1H)-yl)methyl)furan-2-carboxylic acid]"
2,< 50,"Cc1cc(OCCCc2c(C(=O)NCc3ccc(C(=O)O)cc3)n(CCN3CCOCC3)c3c(-c4c(C)nn(C)c4C)c(Cl)ccc23)cc(C)c1Cl [I-373, 4-((6-chloro-3-(3-(4-chloro-3,5-dimethylphenoxy)propyl)-1-(2-morpholinoethyl)-7-(1,3,5-trimethyl-1H-pyrazol-4-yl)-1H-indole-2-carboxamido)methyl)benzoic acid]"
3,< 50,"Cc1cc(OCCCc2c(C(=O)N[C@@H]3CCC[C@@H](C(=O)O)C3)[nH]c3c(-c4c(C)nn(C)c4C)c(Cl)ccc23)cc(C)c1Cl [I-322, (1R,3R)-3-(6-chloro-3-(3-(4-chloro-3,5-dimethylphenoxy)propyl)-7-(1,3,5-trimethyl-1H-pyrazol-4-yl)-1H-indole-2-carboxamido)cyclohexane-1-carboxylic acid]"
4,< 50,"Cc1cc(OCCCc2c3n(c4c(-c5c(C)nn(C)c5C)c(Cl)ccc24)C[C@@H](C)N(Cc2ccc(C(=O)O)cn2)C3=O)cc(C)c1Cl [I-122, (R)-6-((7-chloro-10-(3-(4-chloro-3,5-dimethylphenoxy)propyl)-3-methyl-1-oxo-6-(1,3,5-trimethyl-1H-pyrazol-4-yl)-3,4-dihydropyrazino[1,2-a]indol-2(1H)-yl)methyl)nicotinic acid]"
5,< 50,"Cc1cc(OCCCc2c(C(=O)N3CC(NC(=O)C(=O)O)C3)[nH]c3c(-c4c(C)nn(C)c4C)c(Cl)ccc23)cc(C)c1Cl [I-323, 2-((1-(6-chloro-3-(3-(4-chloro-3,5-dimethylphenoxy)propyl)-7-(1,3,5-trimethyl-1H-pyrazol-4-yl)-1H-indole-2-carbonyl)azetidin-3-yl)amino)-2-oxoacetic acid]"
6,< 50,"Cc1cc(OCCCc2c3n(c4c(-c5c(C)nn(C)c5C)c(Cl)ccc24)[C@H](C)CN(c2cccc(C(=O)O)c2)C3=O)cc(C)c1Cl [I-171, (R)-3-(7-chloro-10-(3-(4-chloro-3,5-dimethylphenoxy)propyl)-4-methyl-1-oxo-6-(1,3,5-trimethyl-1H-pyrazol-4-yl)-3,4-dihydropyrazino[1,2-a]indol-2(1H)-yl)benzoic acid]"
7,< 50,"Cc1cc(OCCCc2c3n(c4c(-c5c(C)nn(C)c5C)c(Cl)ccc24)CCCN(c2cc(Br)cc(C(=O)O)c2)C3=O)cc(C)c1Cl [I-218, 3-bromo-5-(8-chloro-11-(3-(4-chloro-3,5-dimethylphenoxy)propyl)-1-oxo-7-(1,3,5-trimethyl-1H-pyrazol-4-yl)-4,5-dihydro-1H-[1,4]diazepino[1,2-a]indol-2(3H)-yl)benzoic acid]"

# Same assay, conditions: Table 2; Ki bins given in μM; FITC-Bak or FITC-Bim peptide competition; Ki converted from IC50; read-out: Ki for Inhibition of Mcl-1
row,SMILES,Ki [nM]
1,"Cc1cc(OCCCc2c(C(=O)NCc3ccc(Oc4ccccc4)cc3)[nH]c3ccccc23)cc(C)c1Cl [I-45, 3-(3-(4-chloro-3,5-dimethylphenoxy)propyl)-N-(4-phenoxybenzyl)-1H-indole-2-carboxamide]",10000 to 50000
